US20220079962A1, “NUTRITIONAL COMPOSITION COMPRISING 2'FUCOSYLLACTOSE AND DIETARY BUTYRATE” (N.V. Nutricia, priority 2019, published 2022)

Legend:
Caco-2 cell monolayer = experiment: DON-induced impairment of Caco-2 cell monolayer integrity (TEER, lucifer yellow flux); type: cell-based, human; conditions: 24 h pretreatment with 0.75 wt. % GL, then DON 4.2 μM 24 h; FIGS. 1A-D
Method: Caco-2 cells were used according to established methods. In brief: cells were cultured in Dulbecco's modified Eagle medium (DMEM) and seeded at a density of 0.3×10^5 cells into 0.3 cm^2 high pore density (0.4 μm) inserts with a polyethylene terephthalate membrane (BD Biosciences, Franklin Lakes, N.J., USA) placed in a 24-well plate. The Caco-2 cells were maintained in a humidified atmosphere of 95 air and 5% CO2 at 37° C.
Caco-2 cell monolayers were thus grown in a transwell system, which is a model for intestinal barrier function. The monolayers were pretreated for 24 h with different GLs, including beta3′-GL, alpha3′-GL, beta4′-GL and beta6′-GL in a concentration of 0.75 wt. % of the GL, before being exposed to the fungal toxin deoxynivalenol (DON), which is a trigger and model compound to impair intestinal barrier. DON was diluted to a final concentration of 4.2 μM in complete cell medium and added to the apical side as well as to the basolateral side of the transwell inserts. […] Incubation with DON was 24 h.
Measurements of the transepithelial electrical resistance (TEER) and lucifer yellow (LY) permeability were conducted to investigate barrier integrity. For TEER measurements a Millicel-ERS voltohmmeter connected to a pair of chopsticks electrodes was used to measure the TEER values. Results are expressed as a percentage of the initial value. For paracellular tracer flux assay the membrane impermeable lucifer yellow (LY) (Sigma, St Louis, Mo., USA) was added in a concentration of 16 μg/ml to the apical compartment in the transwell plate for 4 h, and the paracellular flux was determined by measuring the fluorescence intensity in the basolateral compartment with a spectrophotofluorimeter (FLUOstar Optima, BMG Labtech, Offenburg, Germany) set at excitation and emission wavelengths of 410 and 520 nm, respectively. Release of interleukin-8 (IL-8 or CXCL8), which is a typical marker for inflammation, was quantified in the medium of the apical side and the basolateral side of the Caco-2 transwell inserts in response to the treatments. CXCL8 concentrations were measured by using the human IL-8 ELISA assay (BD Biosciences, Pharmingem, San Diego, Calif., USA) according to manufacturer's instructions. For more details on materials and methods see Akbari et al, 2016, Eur J Nutr. 56(5):1919-1930.

[1] = test system: T84 human intestinal epithelial cells; experiment: T84 monolayer barrier integrity (TEER) with IL-4; type: cell-based
Method: T84 human intestinal epithelial cells are commonly used to study intestinal barrier integrity in vitro. T84 cells (ATCC, USA) were cultured on 12 mm transwell inserts (0.4 μm, Corning Costrar, USA) in DMEM-F12 glutamax with penicillin-streptomycin (100 IU/ml), supplemented with 5% FBS-Hl. T84 cells were used 14 days after reaching confluence. Monolayers of T84 cultured on transwell filters were pre-incubated for 48 h with or without butyrate. These samples were subsequently incubated for an additional 48 h in the presence of IL-4 (25 ng/ml). IL-4 was added to the basolateral compartment; medium and additives were changed every 24 h.
Epithelial barrier integrity was assessed by measuring transepithelial resistance (TEER; Ω×cm^2) with the epithelial volt-ohm meter (EVOM; World Precision Instruments, Germany).

[2] = test system: human peripheral blood mononuclear cells (PBMC); experiment: PBMC cytokine levels, unstimulated condition; type: cell-based
Excerpt: Isolation of PBMC from healthy donors: Human peripheral blood mononuclear cells (PBMC) from healthy donors were isolated from buffy coats (Sanquin, Amsterdam, the Netherlands). PBMC were obtained by centrifugation using Leucosep tubes (Greiner Bio-One). […] After lysis, the PBMC were resuspended in freezing medium (70% RPMI 1640 medium (Gibco, Thermo Fisher Technologies) supplemented with 10% heat-inactivated FCS and 100 U/ml penicillin-streptomycin, 20% heat-inactivated FCS and 10% DMSO (Sigma)) and cryopreserved. PBMC activation model: PBMC (0.2.10^6 cell/well) were cultured in 96-well flat bottom plates (Corning). For 24 hours the cells were pre-incubated with 2'-FL (Jennewein), 3'-GL (0-0.3% w/v; […] Sigma Aldrich) and combinations thereof. Subsequently, the cells were CD3/CD28-activated (Pelicluster CD3 and Pelicluster CD28, Sanquin) for an additional 24 hours. After incubation, IFNγ was measured by ELISA in the supernatants (see below). […] Roche) and/or 10% Triton (5 μl; negative control). […] Cytokine production of PBMC: PBMC were incubated with indicated reagents. After incubation, the supernatants were collected and IL2, IL6, IL10, IL13, IL21, TNFα, IFNγ, MIF, CCL1, CCL13, CCL17, CCL20, CCL22 and CXCL8-11 levels were measured by conducting a validated multiplex immunoassay based on Luminex technology (xMAP, Luminex Austin Tex. USA). Acquisition was conducted with the Biorad […] (Biorad laboratories, Hercules USA) in combination with xPONENT software version 4.2 (Luminex). Data was analyzed by 5-parametric curve fitting using Bio-Plex Manager software, version 6.1.1 (Biorad). After PBMC stimulation, cell culture supernatants were collected, after which cytokine responses were measured in order to test immune responsiveness of the cells. The levels of cytokines measured in stimulated conditions were corrected for the (low) levels of the cytokines measured in non-stimulated conditions. In addition, since each donor is reacting in its own efficiency onto the T cell stimulus, we calculated the individual index of cytokine response by dividing the intervention induced response by the basal stimulated response.

[3] = test system: human peripheral blood mononuclear cells (PBMC); experiment: PBMC cell activity (WST-1); type: cell-based; conditions: after 24 h
Method: PBMC activation model: PBMC (0.2.10^6 cell/well) were cultured in 96-well flat bottom plates (Corning). For 24 hours the cells were pre-incubated with 2′-FL (Jennewein), 3′-GL (0-0.3% w/v; […] Sigma Aldrich) and combinations thereof. Subsequently, the cells were CD3/CD28-activated (Pelicluster CD3 and Pelicluster CD28, Sanquin) for an additional 24 hours. After incubation, IFNγ was measured by ELISA in the supernatants (see below). […] Roche) and/or 10% Triton (5 μl; negative control).

Row | SMILES | effect on DON-induced loss of epithelial barrier integrity (TEER, LY flux) (Caco-2 cell monolayer) | IL-4 induced disruption of intestinal barrier function [1] | IL10 level compared to blanc control ([2]; 0.2% 2′-FL, 0.2 mM butyrate) | CCL20 level compared to blanc control ([2]; unstimulated) | Immune cell activity as measured by WST [3]
1 | OC[C@H]1O[C@H](O[C@H]2[C@@H](O)[C@@H](CO)O[C@@H](O[C@H]3[C@H](O)[C@@H](O)C(O)O[C@@H]3CO)[C@@H]2O)[C@H](O)[C@@H](O)[C@H]1O (stereo partly drawn) [alpha3′-GL, Gal (alpha 1-3)-Gal (beta 1-4)-Glc, reference compound] | did not prevent the DON-induced disrupted intestinal barrier |  |  |  | 
2 | OC[C@H]1O[C@@H](O[C@@H]2[C@H](O)[C@@H](O)[C@H](O[C@H]3[C@H](O)[C@@H](O)C(O)O[C@@H]3CO)O[C@@H]2CO)[C@H](O)[C@@H](O)[C@H]1O (stereo partly drawn) [beta4′-GL, Gal (beta 1-4)-Gal (beta 1-4)-Glc, reference compound] | did not show a significant effect |  |  |  | 
3 | OC[C@H]1O[C@@H](OC[C@H]2O[C@@H](O[C@H]3[C@H](O)[C@@H](O)C(O)O[C@@H]3CO)[C@H](O)[C@@H](O)[C@H]2O)[C@H](O)[C@@H](O)[C@H]1O (stereo partly drawn) [beta6′-GL, Gal (beta 1-6)-Gal (beta 1-4)-Glc, reference compound] | did not show a significant effect |  |  |  | 
4 | CCCC(=O)O [butyrate, butyric acid] |  | ameliorated | did not have an effect on IL10 levels | did not have a statistically significant effect | did not influence immune cell metabolic activity
